# Results: paper PMC6920806, “Synthesis of β-D-galactopyranoside-Presenting Glycoclusters, Investigation of Their Interactions with Pseudomonas aeruginosa Lectin A (PA-IL) and Evaluation of Their Anti-Adhesion Potential” (Biomolecules, 2019)
# “Also recorded” adds a separate entry of the source. Read-outs that look alike come from different tables or passages of the source.
# What was measured:
# lectin PA-IL [1] = target: T1, lectin PA-IL (Pseudomonas aeruginosa, UniProt Q05097); experiment: Hemagglutination inhibition assay (HIA) with microscope detection; format: biochemical; details: for Potency (MIC of standard/MIC of inhibitor) / β (Potency/Valency): HIA, standard D-galactose; for MIC (minimal inhibitory concentration): inhibition of hemagglutination caused by PA-IL (0.125 mg mL−1), papain-treated red blood cells B+
# T1 construct: made in house; host or cells: Escherichia coli BL21(DE3)
# T1 sequence (Q05097 2-122): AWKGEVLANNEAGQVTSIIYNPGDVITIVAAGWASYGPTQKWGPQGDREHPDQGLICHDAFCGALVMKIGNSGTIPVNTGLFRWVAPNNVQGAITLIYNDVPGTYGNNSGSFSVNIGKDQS
# Protocol: PA-IL was dissolved in the buffer with calcium ions suitable for the activity of the lectin (20 mM Tris/HCl, 150 mM NaCl, 5 mM CaCl2, pH = 7.5) to the concentration 0.25 mg mL^−1. Lectin was mixed with carbohydrate inhibitors serially diluted in the buffer in a 5 µL:5 µL ratio. Therefore, the final (working) concentration of the lectin was 0.125 mg mL^−1. A total of 10 µL of 20% papain-treated, azid-stabilized red blood cells B^+ in the buffer was then added, and the mixture was thoroughly mixed and incubated for 5 min at room temperature. After incubation, the mixture was again mixed, transferred to a microscope slide, and examined. The examination was conducted using the Levenhuk D2L NG Digital Microscope (Levenhuk, Tampa, FL, USA). Images were obtained with a Levenhuk D2L digital camera (Levenhuk, Tampa, FL, USA) using the software ToupView for Windows (Version 3.7, Levenhuk, Tampa, FL, USA). The positive (experiment without inhibitor) and negative control (experiment without lectin) were prepared and processed in the same way using the appropriate volume of dissolving buffer instead of the omitted components. The minimal inhibitory concentration (MIC) of the inhibitor able to inhibit hemagglutination was determined and compared with the standard (D-galactose) and the potency of the inhibitor was calculated (MIC of the standard/MIC of the inhibitor).
# [2] = test system: Pseudomonas aeruginosa CCM 3955 (ATCC 27853) cells; experiment: Pseudomonas aeruginosa cross-linking assay with microscope detection; format: cell-based; details: for cross-linking of whole P. aeruginosa cells (cell aggregates): concentrations up to 5 mM, 10 min, microscope 100x
# Protocol: Pseudomonas aeruginosa CCM 3955 (ATCC 27853) cells were inoculated from stock cells stored at −80 °C into a standard LB medium and were grown at 37 °C overnight under orbital shaking. The bacterial culture was kept in the fridge until further use. Prior to the experiment, bacterial cells were centrifuged at 4300× g (Eppendorf centrifuge MiniSpin, Eppendorf, Germany) for 2 min and subsequently washed three times with PBS buffer (137 mM NaCl, 2.7 mM KCl, 10 mM Na2HPO4, 1.8 mM KH2PO4). Bacterial cells were then diluted in PBS to an optical density OD600 = 1.5, which was checked using a spectrophotometer (WPA CO8000 Biovawe Cell Density Metr, Biochrom Ltd., Cambridge, UK). D-galactopyranoside-presenting inhibitors were diluted in ultrapure water to the concentration of 100 mM. Bacterial cells were mixed in a 9:1 ratio with the 10x concentrated selected compounds and gently mixed. The mixture was incubated at room temperature for 10 min and thoroughly mixed again. An amount of 5 µL of the mixture was transferred onto a microscope slide and observed under 100x magnification using an optical microscope (Olympus IX81F-3/IX81S1F-3, Olympus, Tokyo, Japan). As a negative control, bacterial culture mixed with ultrapure water in 9:1 ratio was used. The images were obtained using a phase contrast method and the background of the images was subtracted in GIMP.
# lectin PA-IL [3] = target: T1, lectin PA-IL; experiment: SPR inhibition of PA-IL binding to immobilized D-galactosides; details: for Potency (IC50 of standard/IC50 of inhibitor) / β (Potency/Valency): standard D-galactose
# Protocol: Surface plasmon resonance (SPR) experiments were performed on a BIAcore T200 instrument (GE Healthcare, Chicago, IL, USA) at 25 °C, using HBST running buffer (10 mM HEPES, 150 mM NaCl, 0.5 mM CaCl2, 0.05% Tween 20, pH = 7). A CM5 sensor chip (GE Healthcare, Chicago, IL, USA) covered with a carboxymethylated dextran matrix was used for ligand immobilization. The sensor chip surface was activated with N-ethyl-N-(3-dimethylaminopropyl)carbodiimide/N-hydroxysuccinimide solution and then coated with streptavidin (Sigma-Aldrich, St. Louis, MO, USA) in 10 mM acetate pH = 5.0 according to the manufacturer’s standard protocol to a final response of 7000 RU. Unreacted groups were blocked with 1 M ethanolamine-HCl, pH = 8.5. 0.5 mM biotinylated carbohydrate (1:1 mixture of biotin-α-D-galactoside and biotin-β-D-galactoside for measuring channel and α-L-fucoside for blank channel, all Lectinity, Moskow, Russia) was injected into a particular channel at a flow rate of 5 μL min^−1.
# In the experimental setup, SPR inhibition measurements were carried out simultaneously on both measuring and blank channels at a flow rate of 5 µL min^−1. […] The response of the blank channel was subtracted from the response of lectin bound to the galactose-modified surface at equilibrium and plotted against the concentration of inhibitor in order to determine IC50 (concentration of inhibitor resulting in 50% inhibition of binding). As IC50 is not a constant and depends on the experimental set-up, a parameter called potency was used for characterization. The potency of a tested inhibitor is the ratio of IC50 of a chosen standard inhibitor (in this case, D-galactose) and the inhibitor in question. Pure lectin PA-IL was used as a control (0% inhibition).
# lectin PA-IL [4] = target: T1, lectin PA-IL; experiment: Analytical ultracentrifugation (sedimentation velocity), cross-linking of lectin; details: for cross-linking of PA-IL (formation of the 6.4 S particle): protein:ligand ratios 1:0.1, 1:1, 1:10; for level of cross-linking (6.4 S octameric species): 1:0.1 protein to ligand ratio, 22 µM PA-IL
# Protocol: Analytical ultracentrifugation experiments were performed using ProteomeLab XL-I analytical ultracentrifuge (Beckman Coulter, Indianapolis, IN, USA) equipped with an An-60 Ti rotor. Sedimentation velocity experiments were conducted in titanium double-sector centerpiece cells (Nanolytics Instruments, Potsdam, Germany) loaded with 390 µL of both protein sample and reference solution (PBS buffer, pH = 7.5). PA-IL without the added ligand and PA-IL samples pre-incubated with different concentrations of galactosylated dendrimers 4, 7, 10 and 13 and D-galactose (protein:ligand ratios of 1:0.1, 1:1 and 1:10) were analyzed by the sedimentation velocity experiment. All the measurements were performed in PBS buffer with 22 µM PA-IL. Data were collected using absorbance optics at 25 °C at a rotor speed of 48,000 rpm. Scans were collected at 280 nm (or alternatively at 294 nm to decrease the absorbance signal of the samples containing excess of the UV-absorbing ligands 4 and 10) at 5-min intervals and 0.003 cm spatial resolution in continuous scan mode. The partial specific volume of the protein and the solvent density and viscosity were calculated from the amino acid sequence and buffer composition, respectively, using the software Sednterp (http://bitcwiki.sr.unh.edu). The data were analyzed with the continuous c(s) distribution model implemented in the program Sedfit 15.01b. For the regularization procedure, a confidence level of 0.95 was used. The plots of c(s) distributions were created in GUSSI 1.3.1 [28].
# [5] = read-out: IC50 (concentration of inhibitor resulting in 50% inhibition of binding), SPR, PA-IL 45 µM, galactoside-modified chip, 25 °C
Structure (SMILES),Potency (MIC of standard/MIC of inhibitor) (lectin PA-IL [1]),β (Potency/Valency) (lectin PA-IL [1]),MIC (minimal inhibitory concentration) (lectin PA-IL [1]) [µM],cross-linking of whole P. aeruginosa cells (cell aggregates) [2],Potency (IC50 of standard/IC50 of inhibitor) (lectin PA-IL [3]; SPR),β (Potency/Valency) (lectin PA-IL [3]; SPR),IC50 (lectin PA-IL [3]; [5]) [µM],cross-linking of PA-IL (formation of the 6.4 S particle) (lectin PA-IL [4]),concentration at which aggregates distinguishable from the negative control were still observed [2] [mM],level of cross-linking (6.4 S octameric species) (lectin PA-IL [4]),IC50 (lectin PA-IL [3]) [µM]
COC(=O)c1cc(OCc2cn(CCOCCOCCOCCn3cc(CO[C@@H]4O[C@H](CO)[C@H](O)[C@H](O)[C@H]4O)nn3)nn2)c(OCc2cn(CCOCCOCCOCCn3cc(CO[C@@H]4O[C@H](CO)[C@H](O)[C@H](O)[C@H]4O)nn3)nn2)c(OCc2cn(CCOCCOCCOCCn3cc(CO[C@@H]4O[C@H](CO)[C@H](O)[C@H](O)[C@H]4O)nn3)nn2)c1 [Compound 4],128,42.7,48.83,Formation of aggregates was observed,27.5,9.2,6.8,did not form intermolecular cross-links,–,–,–
OC[C@H]1O[C@@H](OCc2cn(CCOCCOCCOCCn3cc(COCC(COCc4cn(CCOCCOCCOCCn5cc(CO[C@@H]6O[C@H](CO)[C@H](O)[C@H](O)[C@H]6O)nn5)nn4)(COCc4cn(CCOCCOCCOCCn5cc(CO[C@@H]6O[C@H](CO)[C@H](O)[C@H](O)[C@H]6O)nn5)nn4)COCc4cn(CCOCCOCCOCCn5cc(CO[C@@H]6O[C@H](CO)[C@H](O)[C@H](O)[C@H]6O)nn5)nn4)nn3)nn2)[C@H](O)[C@@H](O)[C@H]1O [Compound 7],256,64,24.41,highest cross-linking activity; also recorded: Formation of aggregates was observed,25.6,6.4,7.3,induced the formation of the 6.4 S particle,1.25,~ 30%,–
COC(=O)c1cc(OCc2cn(CCn3cc(CO[C@@H]4O[C@H](CO)[C@H](O)[C@H](O)[C@H]4O)nn3)nn2)c(OCc2cn(CCn3cc(CO[C@@H]4O[C@H](CO)[C@H](O)[C@H](O)[C@H]4O)nn3)nn2)c(OCc2cn(CCn3cc(CO[C@@H]4O[C@H](CO)[C@H](O)[C@H](O)[C@H]4O)nn3)nn2)c1 [Compound 10],64,21.3,97.66,Formation of aggregates was observed,25.3,8.4,–,induced the formation of the 6.4 S particle,–,~ 15%,7.4
OC[C@H]1O[C@@H](OCc2cn(CCn3cc(COCC(COCc4cn(CCn5cc(CO[C@@H]6O[C@H](CO)[C@H](O)[C@H](O)[C@H]6O)nn5)nn4)(COCc4cn(CCn5cc(CO[C@@H]6O[C@H](CO)[C@H](O)[C@H](O)[C@H]6O)nn5)nn4)COCc4cn(CCn5cc(CO[C@@H]6O[C@H](CO)[C@H](O)[C@H](O)[C@H]6O)nn5)nn4)nn3)nn2)[C@H](O)[C@@H](O)[C@H]1O [Compound 13],128,32,48.83,no aggregates were observed; also recorded: no clearly distinguishable aggregates were detected,–,–,4.3,induced the formation of the 6.4 S particle,–,~ 15%,–
